Measurements from PMC7146544, “Dual Plasmepsin-Targeting Antimalarial Agents Disrupt Multiple Stages of the Malaria Parasite Life Cycle” (Cell Host & Microbe, 2020).
Where two headings read alike, the source gives them in different places.

Tests used:
[1] = Pharmacokinetic attributes (no method given); conditions: in vivo
[2] = Bioanalytical determination of WM382 in mouse blood by LC-MS/MS; type: in vivo; conditions: SCID (huSCID), whole blood, po, huSCID mice
Procedure: Serial samples of peripheral blood (25 μL) were taken from the mice of the efficacy experiment in the murine P. falciparum SCID model by tail puncture at 1, 2, 4, 6 and 24 h post first and last drug administration. The samples were immediately lysed by mixing with 25 μL of water, immediately frozen on dry ice and stored at −80°C until bioanalysis (carried out at SBQ, Reinach, Switzerland). The compounds were extracted from 10 μL of each lysate with 50 μL acetonitrile containing the internal standards (reserpine at 100 ng/mL). After a centrifugation step at 50000 g for 10 min, an aliquot of 50 μL of the supernatant was transferred to an autosampler vial and analyzed. The compounds were quantified by LC-MS/MS in the selected reaction monitoring mode using HESI ionization in positive ion mode, using a TSQ Quantum Access Mass spectrometer (Thermo Fisher Scientific, San Jose, CA, USA). The compound concentration versus time data was determined.

| SMILES | pharmacokinetic attributes [1] | AUC ([2]; 1 mg/kg, oral daily dose 1 mg/kg, read-out: AUC dose 1) | AUC ([2]; 1 mg/kg, oral daily dose 1 mg/kg, read-out: AUC dose 4) | AUC ([2]; 3 mg/kg, oral daily dose 3 mg/kg, read-out: AUC dose 1) | AUC ([2]; 3 mg/kg, oral daily dose 3 mg/kg, read-out: AUC dose 4) | AUC ([2]; 10 mg/kg, oral daily dose 10 mg/kg, read-out: AUC dose 1) | AUC ([2]; 10 mg/kg, oral daily dose 10 mg/kg, read-out: AUC dose 4) | AUC ([2]; 30 mg/kg, oral daily dose 30 mg/kg, read-out: AUC dose 1) | AUC ([2]; 30 mg/kg, oral daily dose 30 mg/kg, read-out: AUC dose 4) |
| --- | --- | --- | --- | --- | --- | --- | --- | --- | --- |
| CC(NC(=O)c1cccc(C(c2ccccc2)N2C(=N)NC(C)(C(C)C)CC2=O)c1)c1ccccc1 (racemic) [WM4] | did not have desirable pharmacokinetic attributes |  |  |  |  |  |  |  |  |
| CCC1(CC)CC(=O)N([C@@H]2CCOc3ccc(C(=O)N[C@H]4CC(C)(C)Oc5ccccc54)cc32)C(=N)N1 [WM382] |  | 0.06 ± 0.03 µM·h | 0.1 ± 0.04 µM·h | 0.5 ± 0.18 µM·h | 0.37 ± 0.21 µM·h | 2.61 ± 1 µM·h | 2.62 ± 1.03 µM·h | 7.04 ± 1.53 µM·h | 5.17 ± 1.22 µM·h |
